Each structure is given as a SMILES string.

The record followed here is patent publication US8133871B2, “Dihydropseudoerythromycin derivatives” (The Kitasato Institute, priority 2005, dated 2012).

One experiment deals with THP-1 cells. Kind of experiment: THP-1 differentiation induction-promoting activity. Type of experiment: cell-based. Particulars: Homo sapiens, THP-1; lowest concentration necessary to show 50% activity relative to the activity value of erythromycin A at 100 μM; PMA 1-2 μM, 72-96 hr. As to the method:
As one index of the anti-inflammatory action of the compound of the present invention, the differentiation induction-promoting activity of THP-1 cell was measured. The measurement was performed as shown below.
THP-1 cells (ATCC No. TIB-202) were adjusted to a concentration of 2×10^5 cells/ml with a medium (RPMI 1640), PMA was added thereto to a final concentration of 1-2 μM, and the mixture was dispensed to each well of a 96 well plate by 100 μl. A solution (100 μl) containing a test substance was adjusted to an appropriate concentration with the medium and added to each well. The mixture was stirred by gently shaking the plate, and incubated under 37° C., 5% CO2 conditions for 72-96 hr. Each well was washed with PBS, a medium containing the viable cell measurement reagent SF (Nacalai Tesque) was added at 100 μl/well and the mixture was incubated under the conditions of 37° C., 5% CO2 for 3-5 hr. The absorbance was measured with a plate reader.
In the Table, the activity value is the lowest concentration necessary for the test compound to show a 50% activity value relative to the activity value of erythromycin A at 100 μM in this experiment.
THP-1 differentiation induction-promoting activity: The lowest concentration necessary for each compound to show 50% activity relative to the activity value of erythromycin A at 100 μM.
Usually minimal effective concentration stands for the smallest amount tested that counted as effective. A low value points to greater potency. On to `CC[C@@H](O)[C@@](C)(O)[C@@H]1OC(=O)[C@H](C)[C@@H](O[C@H]2CC(C)(OC)[C@@H](O)C(C)O2)[C@H](C)[C@@H](O[C@@H]2OC(C)CC(N(C)Cc3ccccc3)C2O)[C@@]2(C)CC(C)C(O2)[C@@H]1C` (stereo partly shown) [EM902, de(3′-N-methyl)-3′-N-benzyl-9-dihydro-pseudoerythromycin A 6,9-epoxide], for which the minimal effective concentration was 30 µM.

For `CC[C@@H](O)[C@@](C)(O)[C@@H]1OC(=O)[C@H](C)[C@@H](O[C@H]2CC(C)(OC)[C@@H](O)C(C)O2)[C@H](C)[C@@H](O[C@@H]2OC(C)CC(N)C2O)[C@]2(C)CC(C)C(O2)[C@@H]1C` (stereo partly shown) [EM903, bis-de(3′-N-methyl)-9-dihydro-pseudoerythromycin A 6,9-epoxide], the minimal effective concentration came out at 30 µM.

Molecule `CC[C@@H](O)[C@@](C)(O)[C@@H]1OC(=O)[C@H](C)[C@@H](O[C@H]2CC(C)(OC)[C@@H](O)C(C)O2)[C@H](C)[C@@H](O[C@@H]2OC(C)CC(N(Cc3ccccc3)Cc3ccccc3)C2O)[C@@]2(C)CC(C)C(O2)[C@@H]1C` (stereo partly shown) [EM904, bis-de(3′-N-methyl)-bis-(3′-N-benzyl)-9-dihydro-pseudoerythromycin A 6,9-epoxide] returned a minimal effective concentration of 10 µM.

`COC1(C)C[C@H](O[C@H]2[C@H](C)[C@@H](O[C@@H]3OC(C)CC(N(C)C)C3O)[C@]3(C)CC(C)C(O3)[C@H](C)[C@H](C(C)=O)OC(=O)[C@@H]2C)OC(C)[C@@H]1O` (stereo partly shown) [EM906, de[12-(1-hydroxypropyl)]-9-dihydro-12-oxo-pseudoerythromycin A 6,9-epoxide]: the minimal effective concentration stood at 30 µM.

For the molecule `COC1(C)C[C@H](O[C@H]2[C@H](C)[C@@H](O[C@@H]3OC(C)CC(N(C)C)C3O)[C@]3(C)CC(C)C(O3)[C@H](C)[C@H](C(C)O)OC(=O)[C@@H]2C)OC(C)[C@@H]1O` (stereo partly shown) [EM908, de[12-(1-hydroxypropyl)]-9-dihydro-pseudoerythromycin A 6,9-epoxide], the minimal effective concentration amounted to 10 µM.

For the molecule `CC[C@@H]1O[C@@]1(C)[C@@H]1OC(=O)[C@H](C)[C@@H](O[C@H]2CC(C)(OC)[C@@H](O)C(C)O2)[C@H](C)[C@@H](O[C@@H]2OC(C)CC(N(C)C)C2O)[C@]2(C)CC(C)C(O2)[C@@H]1C` (stereo partly shown) [EM909, 12,13-epoxy-9-dihydro-pseudoerythromycin A 6,9-epoxide], the minimal effective concentration came out at 30 µM.

`CC[C@@H](O)[C@@](C)(O)[C@@H]1OC(=O)[C@H](C)[C@@H](O)[C@H](C)[C@@H](O[C@@H]2OC(C)CC(N(C)C)C2O)[C@]2(C)CC(C)C(O2)[C@@H]1C` (stereo partly shown) [EM910, de(3-O-cladinosyl)-9-dihydro-pseudoerythromycin A 6,9-epoxide]: the minimal effective concentration came to 100 µM.

Consider `CC[C@@H](OC(C)=O)[C@@](C)(O)[C@@H]1OC(=O)[C@H](C)[C@@H](O[C@H]2CC(C)(OC)C(OC(C)=O)C(C)O2)[C@H](C)[C@@H](O[C@@H]2OC(C)CC(N(C)C)C2O)[C@]2(C)CC(C)C(O2)[C@@H]1C` (stereo partly shown) [EM911, 4″,13-O-diacetyl-9-dihydro-pseudoerythromycin A 6,9-epoxide], for which the minimal effective concentration came to 10 µM.

`CC[C@@H](O)[C@@](C)(O)[C@@H]1OC(=O)[C@H](C)[C@@H](O[C@H]2CC(C)(OC)[C@@H](O)C(C)O2)[C@H](C)[C@@H](O[C@@H]2OC(C)CC(N(C)C)C2OC(C)=O)[C@]2(C)CC(C)C(O2)[C@@H]1C` (stereo partly shown) [EM913, 2′-O-acetyl-9-dihydro-pseudoerythromycin A 6,9-epoxide] registered a minimal effective concentration of 30 µM.

Take `CC[C@H]1OC(=O)O[C@@]1(C)[C@@H]1OC(=O)[C@H](C)C(=O)[C@H](C)[C@@H](O[C@@H]2OC(C)CC(N(C)C)C2OC(C)=O)[C@]2(C)CC(C)C(O2)[C@@H]1C` (stereo partly shown) [EM917, 2′-O-acetyl-de(3-O-cladinosyl)-9-dihydro-3-keto-pseudoerythromycin A 6,9-epoxide 12,13-carbonate]: the minimal effective concentration turned out to be 30 µM.

Take `CC[C@H]1OC(=O)O[C@@]1(C)[C@@H]1OC(=O)[C@H](C)C(=O)[C@H](C)[C@@H](O[C@@H]2OC(C)CC(N(C)C)C2O)[C@]2(C)CC(C)C(O2)[C@@H]1C` (stereo partly shown) [EM918, de(3-O-cladinosyl)-9-dihydro-3-keto-pseudoerythromycin A 6,9-epoxide 12,13-carbonate]: the minimal effective concentration came to 30 µM.

`CC[C@@H](O)[C@@](C)(O)[C@@H]1OC(=O)[C@H](C)[C@@H](O)[C@H](C)[C@H](O[C@@H]2OC(C)CC(N(C)Cc3ccc(Cl)cc3)C2O)[C@@]2(C)CC(C)C(O2)[C@@H]1C` (stereo partly shown) [EM925, de(3′-N-methyl)-3′-N-(p-chlorobenzyl)-de(3-O-cladinosyl)-9-dihydro-pseudoerythromycin A 6,9-epoxide]: the minimal effective concentration amounted to 30 µM.

With `CC[C@H]1OC(=O)O[C@@]1(C)[C@@H]1OC(=O)[C@H](C)C(=O)[C@H](C)[C@@H](O[C@@H]2OC(C)CC(N3CCOCC3)C2OC(C)=O)[C@]2(C)CC(C)C(O2)[C@@H]1C` (stereo partly shown) [EM932, 2′-O-acetyl-de(3-O-cladinosyl)-9-dihydro-3-keto-de(3′-dimethylamino)-3′-morpholino-pseudoerythromycin A 6,9-epoxide 12,13-carbonate], the minimal effective concentration was determined as 10 µM.

In turn, `CC[C@H]1OC(=O)O[C@@]1(C)[C@@H]1OC(=O)[C@H](C)C(=O)[C@H](C)[C@@H](O[C@@H]2OC(C)CC(N3CCOCC3)C2O)[C@]2(C)CC(C)C(O2)[C@@H]1C` (stereo partly shown) [EM935, de(3-O-cladinosyl)-9-dihydro-3-keto-de(3′-dimethylamino)-3′-morpholino-pseudoerythromycin A 6,9-epoxide 12,13-carbonate] returned a minimal effective concentration of 30 µM.

`CC[C@H]1OC(=O)O[C@@]1(C)[C@@H]1OC(=O)[C@H](C)[C@@H](O)[C@H](C)[C@@H](O[C@@H]2OC(C)CC(N(C)C(=O)OCc3ccccc3)C2OC(=O)OCc2ccccc2)[C@]2(C)CC(C)C(O2)[C@@H]1C` (stereo partly shown) [EM936, de(3′-N-methyl)-2′-O-3′-N-bis(benzyloxycarbonyl)-de(3-O-cladinosyl)-9-dihydro-pseudoerythromycin A 6,9-epoxide 12,13-carbonate] yielded a minimal effective concentration of 10 µM.

In the case of `CC[C@H]1OC(=O)O[C@@]1(C)[C@@H]1OC(=O)[C@H](C)[C@@H](O)[C@H](C)[C@@H](O[C@@H]2OC(C)CC(N3CCOCC3)C2O)[C@]2(C)CC(C)C(O2)[C@@H]1C` (stereo partly shown) [EM946, de(3-O-cladinosyl)-9-dihydro-de(3′-dimethylamino)-3′-morpholino-pseudoerythromycin A 6,9-epoxide 12,13-carbonate], the minimal effective concentration turned out to be 100 µM.

The molecule `CC[C@H]1OC(C)(C)O[C@@]1(C)[C@@H]1OC(=O)[C@H](C)C(=O)[C@H](C)[C@@H](O[C@@H]2OC(C)CC(N(C)Cc3ccc(Cl)cc3)C2O)[C@]2(C)CC(C)C(O2)[C@@H]1C` (stereo partly shown) [EM947, de(3′-N-methyl)-3′-N-(p-chlorobenzyl)-de(3-O-cladinosyl)-9-dihydro-3-keto-pseudoerythromycin A 6,9-epoxide 12,13-isopropylidene Acetal] showed a minimal effective concentration of 10 µM.

Regarding `CC[C@@H](O)[C@@](C)(O)[C@@H]1OC(=O)[C@H](C)C(=O)[C@H](C)[C@H](O[C@@H]2OC(C)CC(N(C)Cc3ccc(Cl)cc3)C2O)[C@]2(C)CC(C)C(O2)[C@@H]1C` (stereo partly shown) [EM949, de(3′-N-methyl)-3′-N-(p-chlorobenzyl)-de(3-O-cladinosyl)-9-dihydro-3-keto-pseudoerythromycin A 6,9-epoxide], the minimal effective concentration is 10 µM.

The experiment is the same for the next values; noted with them: lowest concentration necessary to show 50% activity relative to the activity value of erythromycin A at 100 μM; PMA 1-2 μM, 72-96 hr.
Turning to `CO[C@]1(C)C[C@H](O[C@H]2[C@H](C)[C@@H](O[C@@H]3O[C@H](C)C[C@H](N(C)C)[C@H]3O)[C@@]3(C)C[C@@H](C)[C@H](O3)[C@H](C)[C@H](/C(C)=N/O)OC(=O)[C@@H]2C)O[C@@H](C)[C@@H]1O` [EM907, de[12-(1-hydroxypropyl)]-9-dihydro-12-hydroxyoxime-pseudoerythromycin A 6,9-epoxide], the “THP-1 differentiation induction-promoting activity” value was found to be 30.
